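1) Cells in 96-well plates. 2) Compound, 48 h, 5 concentrations. 3) Linear interpolation between surrounding doses. 4) Unreached endpoint = highest concentration. GI50: concentration for 50% inhibition of growth.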 Calls of active or inactive are those of the source. Rule as the data show it: active = GI50 up to about 1.1 µM and inactive = higher.
Assays:
Test in all cases: NCI anticancer screen, dose series, 48 h
[1] = tested on: 786-0
[2] = tested on: DMS-114
[3] = tested on: SF-539
[4] = tested on: M19-MEL
[5] = tested on: SN12C
[6] = tested on: OVCAR-3
[7] = tested on: COLO 205
[8] = tested on: TK-10
[9] = tested on: UO-31
[10] = tested on: HCT-15
[11] = tested on: HCT-116
[12] = tested on: MOLT-4
[13] = tested on: SNB-78
[14] = tested on: SR
[15] = tested on: KM12
[16] = tested on: M14
[17] = tested on: CCRF-CEM
[18] = tested on: OVCAR-5
[19] = tested on: T47D
[20] = tested on: DU-145

O=c1c2ccccc2[nH]c(=S)n1-c1ccc(Br)cc1
GI50 [1]: 80.7 µM (inactive) | GI50 [2]: 46.7 µM (inactive) | GI50 [3]: > 100 µM (inactive) | GI50 [4]: 74.8 µM (inactive) | GI50 [5]: > 100 µM (inactive) | GI50 [6]: 45.1 µM (inactive) | GI50 [7]: > 100 µM (inactive) | GI50 [8]: > 100 µM (inactive) | GI50 [9]: 92.5 µM (inactive) | GI50 [10]: 71.9 µM | GI50 [11]: 68.4 µM (inactive) | GI50 [12]: 76 µM (inactive) | GI50 [13]: > 100 µM (inactive) | GI50 [14]: > 100 µM (inactive) | GI50 [15]: > 100 µM (inactive)

CCOC(=O)c1c(/C=N\Nc2ccccc2)nc2ccccc2c1-c1ccccc1
GI50 [16]: 36.7 µM (inactive) | GI50 [1]: 40.6 µM (inactive) | GI50 [2]: 41.6 µM (inactive) | GI50 [3]: 68.5 µM (inactive) | GI50 [4]: 26.8 µM (inactive) | GI50 [5]: 38.1 µM (inactive) | GI50 [6]: 31.7 µM (inactive) | GI50 [7]: 24 µM (inactive) | GI50 [8]: > 100 µM (inactive) | GI50 [9]: 34.4 µM (inactive) | GI50 [10]: 13.6 µM | GI50 [11]: 42 µM (inactive) | GI50 [12]: 20.7 µM (inactive) | GI50 [13]: 51.1 µM (inactive) | GI50 [17]: 19.2 µM (inactive) | GI50 [14]: 19.2 µM (inactive) | GI50 [18]: > 100 µM (inactive) | GI50 [15]: 43.9 µM (inactive)

COc1ccc2c[n+](C)c3c4cc(OC)c(OC)cc4ccc3c2c1
GI50 [19]: 2.73 µM (inactive) | GI50 [16]: 15.7 µM (inactive) | GI50 [1]: 2.39 µM (inactive) | GI50 [2]: 1.05 µM (active) | GI50 [3]: 10.7 µM (inactive) | GI50 [4]: 12.4 µM (inactive) | GI50 [5]: 2.02 µM (inactive) | GI50 [6]: 3.9 µM (inactive) | GI50 [7]: 0.776 µM (active) | GI50 [8]: 17.8 µM (inactive) | GI50 [9]: 44 µM (inactive) | GI50 [10]: > 41.9 µM | GI50 [11]: 4.37 µM (inactive) | GI50 [12]: 3.85 µM (inactive) | GI50 [13]: 12.2 µM (inactive) | GI50 [20]: 10.3 µM (inactive) | GI50 [17]: 3.37 µM (inactive) | GI50 [14]: 2.87 µM (inactive) | GI50 [18]: 8.63 µM (inactive) | GI50 [15]: 1.43 µM (inactive)

Cn1c(=O)oc2cc(C3CCC(=O)N3Cc3csc(-c4ccccc4)n3)ccc21 (stereo unspecified)
GI50 [16]: > 100 µM (inactive) | GI50 [1]: > 100 µM (inactive) | GI50 [2]: > 100 µM (inactive) | GI50 [3]: > 100 µM (inactive) | GI50 [4]: > 100 µM (inactive) | GI50 [5]: > 100 µM (inactive) | GI50 [7]: 77.3 µM (inactive) | GI50 [8]: > 100 µM (inactive) | GI50 [9]: 52.5 µM (inactive) | GI50 [10]: > 100 µM | GI50 [11]: > 100 µM (inactive) | GI50 [12]: 58.2 µM (inactive) | GI50 [13]: > 100 µM (inactive) | GI50 [17]: > 100 µM (inactive) | GI50 [14]: 63.7 µM (inactive) | GI50 [18]: > 100 µM (inactive) | GI50 [15]: 76.2 µM (inactive)

Cc1c(C2Cc3ccccc3N2)c2ccccc2n1C (stereo unspecified)
GI50 [16]: > 100 µM (inactive) | GI50 [1]: > 100 µM (inactive) | GI50 [2]: > 100 µM (inactive) | GI50 [3]: > 100 µM (inactive) | GI50 [4]: > 100 µM (inactive) | GI50 [5]: > 100 µM (inactive) | GI50 [6]: > 100 µM (inactive) | GI50 [7]: > 100 µM (inactive) | GI50 [8]: > 100 µM (inactive) | GI50 [9]: > 100 µM (inactive) | GI50 [10]: 36.3 µM | GI50 [11]: > 100 µM (inactive) | GI50 [12]: > 100 µM (inactive) | GI50 [13]: > 100 µM (inactive) | GI50 [17]: > 100 µM (inactive) | GI50 [14]: > 100 µM (inactive) | GI50 [18]: > 100 µM (inactive) | GI50 [15]: > 100 µM (inactive)

COC(=O)C(=O)C(CC(=O)Nc1c(C)cccc1C)C(=O)OC (stereo unspecified)
GI50 [16]: > 100 µM (inactive) | GI50 [1]: > 100 µM (inactive) | GI50 [2]: > 100 µM (inactive) | GI50 [3]: > 100 µM (inactive) | GI50 [4]: > 100 µM (inactive) | GI50 [5]: > 100 µM (inactive) | GI50 [6]: > 100 µM (inactive) | GI50 [8]: > 100 µM (inactive) | GI50 [9]: > 100 µM (inactive) | GI50 [10]: > 100 µM | GI50 [11]: > 100 µM (inactive) | GI50 [12]: > 100 µM (inactive) | GI50 [13]: > 100 µM (inactive) | GI50 [17]: > 100 µM (inactive) | GI50 [14]: > 100 µM (inactive) | GI50 [18]: > 100 µM (inactive) | GI50 [15]: > 100 µM (inactive)

CCOC(=O)Cc1csc(Nc2ccccc2[N+](=O)[O-])n1
GI50 [16]: > 100 µM (inactive) | GI50 [1]: > 100 µM (inactive) | GI50 [2]: > 100 µM (inactive) | GI50 [3]: > 100 µM (inactive) | GI50 [4]: > 100 µM (inactive) | GI50 [5]: > 100 µM (inactive) | GI50 [6]: > 100 µM (inactive) | GI50 [7]: > 100 µM (inactive) | GI50 [8]: > 100 µM (inactive) | GI50 [9]: > 100 µM (inactive) | GI50 [10]: > 56.6 µM | GI50 [11]: > 76.4 µM (inactive) | GI50 [12]: > 100 µM (inactive) | GI50 [13]: > 100 µM (inactive) | GI50 [17]: > 100 µM (inactive) | GI50 [14]: 29.7 µM (inactive) | GI50 [18]: > 100 µM (inactive) | GI50 [15]: > 100 µM (inactive)

CCOC(=O)C12CCCC1(O)N(NC(=O)OC(C)(C)C)C(C)=C2C(=O)OC (stereo unspecified)
GI50 [16]: > 100 µM (inactive) | GI50 [1]: > 100 µM (inactive) | GI50 [2]: > 100 µM (inactive) | GI50 [3]: > 100 µM (inactive) | GI50 [4]: > 100 µM (inactive) | GI50 [5]: > 100 µM (inactive) | GI50 [6]: > 100 µM (inactive) | GI50 [7]: > 100 µM (inactive) | GI50 [8]: > 100 µM (inactive) | GI50 [9]: > 100 µM (inactive) | GI50 [10]: > 100 µM | GI50 [11]: > 100 µM (inactive) | GI50 [12]: > 100 µM (inactive) | GI50 [13]: > 100 µM (inactive) | GI50 [17]: > 100 µM (inactive) | GI50 [18]: > 100 µM (inactive) | GI50 [15]: > 100 µM (inactive)

NC(CCCCNCc1ccccc1O)C(=O)O (stereo unspecified)
GI50 [16]: > 100 µM (inactive) | GI50 [1]: > 100 µM (inactive) | GI50 [2]: > 100 µM (inactive) | GI50 [3]: > 100 µM (inactive) | GI50 [4]: > 100 µM (inactive) | GI50 [5]: > 100 µM (inactive) | GI50 [6]: > 100 µM (inactive) | GI50 [7]: > 100 µM (inactive) | GI50 [8]: > 100 µM (inactive) | GI50 [9]: > 100 µM (inactive) | GI50 [10]: > 100 µM | GI50 [11]: > 100 µM (inactive) | GI50 [12]: > 100 µM (inactive) | GI50 [13]: > 100 µM (inactive) | GI50 [17]: > 100 µM (inactive) | GI50 [18]: > 100 µM (inactive) | GI50 [15]: > 100 µM (inactive)

O=CN1CCN(C=S)CC1
GI50 [16]: > 100 µM (inactive) | GI50 [1]: > 100 µM (inactive) | GI50 [2]: > 100 µM (inactive) | GI50 [3]: > 100 µM (inactive) | GI50 [4]: > 100 µM (inactive) | GI50 [5]: > 100 µM (inactive) | GI50 [6]: > 100 µM (inactive) | GI50 [7]: > 100 µM (inactive) | GI50 [8]: > 100 µM (inactive) | GI50 [9]: > 100 µM (inactive) | GI50 [10]: > 100 µM | GI50 [11]: > 100 µM (inactive) | GI50 [12]: > 100 µM (inactive) | GI50 [13]: > 100 µM (inactive) | GI50 [17]: > 100 µM (inactive) | GI50 [14]: 54.5 µM (inactive) | GI50 [18]: > 100 µM (inactive) | GI50 [15]: > 100 µM (inactive)

Cc1ccc2c(c1)SC(c1cc3c(cc1Br)OCO3)S2 (stereo unspecified)
GI50 [16]: > 31.6 µM (inactive) | GI50 [1]: > 31.6 µM (inactive) | GI50 [2]: 15.8 µM (inactive) | GI50 [3]: > 31.6 µM (inactive) | GI50 [4]: 28.6 µM (inactive) | GI50 [5]: > 31.6 µM (inactive) | GI50 [6]: > 31.6 µM (inactive) | GI50 [7]: > 31.6 µM (inactive) | GI50 [8]: > 31.6 µM (inactive) | GI50 [9]: 19.7 µM (inactive) | GI50 [10]: 25.4 µM | GI50 [11]: 23.9 µM (inactive) | GI50 [12]: 31.4 µM (inactive) | GI50 [13]: > 31.6 µM (inactive) | GI50 [17]: > 31.6 µM (inactive) | GI50 [14]: 23.3 µM (inactive) | GI50 [18]: > 31.6 µM (inactive) | GI50 [15]: 26.7 µM (inactive)

COC(=O)[C@@H]1C(=O)O[C@@H](c2cc(OC)c(OC)cc2OC)[C@@H]1C(=O)OC.COC(=O)[C@H]1C(=O)O[C@@H](c2cc(OC)c(OC)cc2OC)[C@@H]1C(=O)OC
GI50 [16]: > 100 µM (inactive) | GI50 [1]: > 100 µM (inactive) | GI50 [2]: > 100 µM (inactive) | GI50 [3]: > 100 µM (inactive) | GI50 [4]: > 100 µM (inactive) | GI50 [5]: > 100 µM (inactive) | GI50 [6]: > 100 µM (inactive) | GI50 [7]: > 100 µM (inactive) | GI50 [8]: > 100 µM (inactive) | GI50 [9]: > 100 µM (inactive) | GI50 [10]: > 100 µM | GI50 [11]: > 100 µM (inactive) | GI50 [12]: > 100 µM (inactive) | GI50 [13]: > 100 µM (inactive) | GI50 [17]: > 100 µM (inactive) | GI50 [14]: > 100 µM (inactive) | GI50 [18]: > 100 µM (inactive) | GI50 [15]: > 100 µM (inactive)
